What was measured:
[1] = test system: hairless Guinea pigs; assay: Evaluation of the increase of moisture content in the skin (Corneometer, acetone-damaged skin barrier); format: in vivo; details: flank, 200 μl applied after 30 min acetone patch; for moisture content of the stratum corneum, 6 h after sample application: relative to content directly after acetone treatment = 100, 6 h; for moisture content of the stratum corneum, 12 h after sample application: relative to content directly after acetone treatment = 100, 12 h; for moisture content of the stratum corneum, 24 h after sample application: relative to content directly after acetone treatment = 100, 24 h; for moisture content of the stratum corneum, 48 h after sample application: relative to content directly after acetone treatment = 100, 48 h
Description: The degree of the increase of moisture content in the skin was measured for the compounds obtained in the Examples. The increase of moisture content in the skin was measured by dividing 50 hairless Guinea pigs into 10 groups, and applying the compounds obtained in the Examples to each group.
Specifically, after the skin barrier was damaged by patching acetone using Finn chamber for 30 minutes to the flank site of the experiment animals, 200 μl of each experimental substance was applied to the patched site, then the moisture content of the stratum corneum of the site was measured using Corneometer and then evaluated. Apparatus measurements were carried out directly after and 6 hours, 12 hours, 24 hours and 48 hours after removing the acetone patch. Changes of moisture content in the skin were evaluated relative to the content measured directly after the acetone treatment, which was set to be 100.

[2] = Evaluation of moisture retaining ability in dry conditions (weight change, 18° C., RH 20%); format: physicochemical; details: initial moisture content 60%, constant temperature and humidity chamber 18° C.
Description: Moisture retaining ability was evaluated and compared for the compounds obtained in the Examples.
Specifically, samples were prepared such that the moisture content of the compounds obtained in the Examples was 60%, and while the samples were kept in a constant temperature and humidity chamber (18° C., RH 20%), the weight change of the samples was observed over time, thereby enabling evaluation of the changes in moisture content.

Row | moisture content of sample, 1 h [2] [%] | moisture content of sample, 2 h [2] [%] | moisture content of sample, 4 h [2] [%] | moisture content of sample, 6 h [2] [%] | Molecule | moisture content of the stratum corneum, 6 h after sample application [1] | moisture content of the stratum corneum, 12 h after sample application [1] | moisture content of the stratum corneum, 24 h after sample application [1] | moisture content of the stratum corneum, 48 h after sample application [1]
1 | 58 | 52 | 44 | 29 | pentaerythritol ethoxylate (15/4 EO/OH) glycolic ester ethoxylate cetyl ether (pentaerythritol ethoxylate (15/4 EO/OH) ceteth-10 carboxylate) [Example 38] | 108 | 111 | 112 | 114
2 | 57 | 55 | 50 | 43 | pentaerythritol ethoxylate (15/4 EO/OH) glycolic ester ethoxylate hexyl ether (pentaerythritol ethoxylate (15/4 EO/OH) hexeth-4 carboxylate) [Example 29] | 106 | 109 | 111 | 109
3 |  |  |  |  | pentaerythritol ethoxylate (15/4 EO/OH) glycolic ester ethoxylate stearyl ether (pentaerythritol ethoxylate (15/4 EO/OH) steareth-10 carboxylate) [Example 42] | 106 | 110 | 109 | 111
4 | 57 | 50 | 41 | 25 | OCC(O)CO [Glycerol, reference compound] | 109 | 113 | 115 | 117
5 | 56 | 52 | 48 | 43 | pentaerythritol ethoxylate (3/4 EO/OH) glycolic ester ethoxylate cetyl ether (pentaerythritol ethoxylate (3/4 EO/OH) ceteth-4 carboxylate) [Example 22] | 100 | 105 | 109 | 115
6 | 58 | 56 | 49 | 45 | pentaerythritol ethoxylate (15/4 EO/OH) glycolic ester ethoxylate lauryl ether (pentaerythritol ethoxylate (15/4 EO/OH) laureth-6 carboxylate) [Example 34] | 105 | 110 | 116 | 114
7 | 58 | 57 | 50 | 44 | pentaerythritol glycolic ester ethoxylate cetyl ether (pentaerythritol ceteth-10 carboxylate) [Example 10] | 101 | 105 | 109 | 113
8 | 57 | 53 | 47 | 38 | pentaerythritol ethoxylate (3/4 EO/OH) glycolic ester ethoxylate octyl ether(pentaerythritol ethoxylate (3/4 EO/OH) capreth-4 carboxylate) [Example 17] | 103 | 106 | 108 | 104
9 | 58 | 55 | 49 | 41 | pentaerythritol glycolic ester ethoxylate lauryl ether (pentaerythritol laureth-4 carboxylate) [Example 5] | 98 | 99 | 103 | 105

Reference: patent publication US8501807B2, “Pentaerythritol derivatives” (priority 2004, dated 2013)
